The nature of the data set: Solubility / precipitation observed during testing. In kind it is physicochemical. Particulars: free ligand in cell assays. The method, then: In concentrations exceeding 33.3 µM the complexes frequently precipitated. All of the complexes and the free ligand exerted little rapid cytotoxicity in MTT assays, not more than 35% in any of the cell lines assessed in the peak concentration, except for the Os-7 complex with 75% toxicity on ID8 cells (Figure 5; Table 2). […] The complexes were more efficient in ID8 cells as compared to A2780 cells (Figure 5; Table 2). […] On primary non-transformed fibroblasts, used as controls, the complexes exerted negligible toxicity and low cytostatic activity (Figure 5; Table 2). The cytostatic activity was not more than 50% in the peak concentration.

Take `CCCCCCCC(=O)OC[C@H]1O[C@@H](n2cc(-c3ccccn3)nn2)[C@H](OC(=O)CCCCCCC)[C@@H](OC(=O)CCCCCCC)[C@@H]1OC(=O)CCCCCCC` [L-6]: the “solubility (suitability for testing)” value was “insoluble”.

The values above are taken from article PMC9923724, “Half sandwich-type osmium, ruthenium, iridium and rhodium complexes with bidentate glycosyl heterocyclic ligands induce cytostasis in platinum-resistant ovarian cancer cells and bacteriostasis in Gram-positive multiresistant bacteria” (Frontiers in Chemistry, 2023).
